# According to patent publication US12516130B2, “Single-domain antibody for targeting prostate specific membrane antigen (PSMA)” (NATIONAL INSTITUTE FOR BIOTECHNOLOGY IN THE NEGEV LTD., priority 2019, dated 2026):
# Assays:
# [1] = tested on: PC3-PIP and PC3-flu cells; test: Confocal imaging of NB7cys, DOX and NB7cysDOX internalization; format: cell-based; conditions: 15 min, 1.5 μg/ml DOX or molar equivalent
# PC3-PIP cells [2] = test: Cell quantification assay; format: cell-based; conditions: 24 h, 1.5 μg/ml DOX or equivalent molar amount
# Method: PC3-PIP cells (5×10^4) were seeded in 24-well plates. […] After 24 h of treatment, the number of cells in each well was counted using the Countess II automated cell counter (Invitrogen).
# PC3-PIP cells [3] = test: Cell viability assay (propidium iodide, FACS); format: cell-based; conditions: 24 h, 1.5 μg/ml DOX or equivalent molar amount
# Method: PC3-PIP cells were grown and treated as described in the cell quantification assay section, above. The cells were harvested, incubated with 0.5 μg propidium iodide (PI; Biolegend), and their fluorescence intensity was measured in a BD C6 flow cytometer.
# PC3-PIP cells [4] = test: Mitochondrial potential assay (TMRE); format: cell-based; conditions: 24 h, 1.5 μg/ml DOX or equivalent molar amount
# Method: PC3-PIP cells (2×10^4) were seeded on 96-well plates. […] After 24 h, tetramethylrhodamine ethyl ester (TMRE; Abcam, UK) was added according to the protocol provided by the manufacturer. Fluorescence intensity was measured at an excitation wavelength of 549 nm and an emission wavelength of 575 nm.
# PC3-PIP xenografts [5] = test: In vivo tumor growth inhibition; design: species or system athymic nude mice; conditions: fewer than in saline group
# Method: PC3-PIP xenografts were grown in athymic nude mice, as described in the in vivo optical imaging section, above. When the average tumor size reached 200 mm^3, the mice were divided into three groups (controlled for average tumor size), each subjected to a different treatment: 150 μl saline (n=7), 2 mg/kg DOX (n=8), or 1.4 mg/kg (˜40 μg) NB7cysDOX (n=8). The treatment was administered to the tail vein twice a week for three consecutive weeks. At each sample point, the tumor volume was calculated (V=0.5×L×W×H), as previously described (Tomayko and Reynolds, 1989). A mouse was euthanized when tumor volume reached 1,500 mm^3 or when its physical condition deteriorated, according to the guidelines of the Committee for the Ethical Care and Use of Animals in Research at BGU. The estimated tumor volume prior to euthanasia and the rate-based T/C were determined as described previously (Aston et al., 2017).
# PC3-PIP xenografts [6] = test: Histology of treated tumors (IF, H&E, TUNEL); conditions: 4 d after treatment termination
# From the text: Four days following the final dose of each treatment in the in vivo tumor growth inhibition assay, the mice were euthanized, and their xenografts were fixated in 4% formaldehyde and embedded in paraffin. Tumor sections (5 μm thickness) were subjected to hematoxylin and eosin (H&E) staining, TUNEL assay, and immunofluorescence (IF), as previously described (Pittala et al., 2018, Fischer et al., 2008). […] 4′,6-diamidino-2-phenylindole (DAPI) was used for nuclei staining. […] TUNEL, PI, and IF were visualized in a confocal microscope.
compound,measurement,setting,value
"COc1cccc2c1C(=O)c1c(O)c3c(c(O)c1C2=O)C[C@@](O)(C(=O)CO)C[C@@H]3O[C@H]1C[C@H](N)[C@H](O)[C@H](C)O1 [DOX, doxorubicin]",cellular distribution in PC3-PIP and PC3-flu cells,[1],diffused spontaneously into both PC3-PIP and PC3-flu cells
same,number of cells versus untreated cells,PC3-PIP cells [2],significantly reduced the number of cells in the well
same,PI signal (late apoptosis and necrosis),PC3-PIP cells [3],considerably increased the signal
same,mitochondrial membrane potential (TMRE signal),PC3-PIP cells [4],similarly reduced the mitochondrial membrane potential
same,"mice reaching maximal tumor size, DOX versus NB7cysDOX groups",PC3-PIP xenografts [5],not significantly different from each other
same,H&E staining of tumors,PC3-PIP xenografts [6],"necrotic, fewer, and with large vacancies between cells"
same,TUNEL assay of tumors,PC3-PIP xenografts [6],significant apoptosis
